This data set can be described thus: Human HepG2 cell viability assay in 384 well format. The class given is toxicity, cell-based. Also noted: dose 125 nL, time 70.5 hour; cytotoxicity at 70.5 h: concentration not given beside the values. As to conditions: HepG2 cells, read-out: Inhibition.

Consider `CCOC(=O)c1cnn(-c2cc(Oc3ccccc3)ncn2)c1N`, for which the cytotoxicity at 70.5 h was found to be 3.77%.
In the case of `O=C(CN1CCCC1)Nc1c2c(cc3c1CCC3)CCC2` it was -4.72%; in that of `CNC(C)Cc1ccccc1Sc1ccc(O)cc1` (centres undefined), -8.32%.
In the case of `CCOC(=O)c1cnn(-c2cc(Oc3ccccc3C)ncn2)c1N` it was 23.9%; in that of `COc1cccc2c3c(c(=O)[nH]c12)CC(C)(C)O3`, -6.98%; in that of `O=C(NCCc1ccccc1)N1C[C@H]2C[C@H](C(=O)N3CCCC3)[C@@H](C1)O2`, 0.399%.
In the case of `Cn1cnc(S(=O)(=O)N2CCO[C@H]3[C@H](OCC4CC4)CC[C@@H]32)c1` it was -2.37%.
As to `CCS(=O)(=O)N1CCCC2(COCCN(c3nncs3)C2)C1` (centres undefined), the cytotoxicity at 70.5 h was -2.49%.
In the case of `Cc1cnc(C(=O)N2CCC3(CC2)C(=O)NCCN3CC(C)C)cn1` it was -2.5%; in that of `COc1cc(C2CC(=O)Nc3c2c(=O)[nH]n3C2CCCC2)ccc1O` (centres undefined), -2.72%; in that of `O=C1CCCN1Cc1noc(-c2ccc(Cl)cc2)n1`, -6.78%.
To `CCc1ccc(NC(=O)CC2Cn3ncnc3NC2=O)cc1` (centres undefined) belongs -16.3%.
In the case of `CCOc1ccc(NC(=O)c2cc3c([nH]c2=O)CCC3)cc1` it was -13.3%.
Turning to `Cc1ccc(NC(=O)CC2Cn3ncnc3NC2=O)cc1C` (centres undefined), the cytotoxicity at 70.5 h was -8.36%.
In the case of `CCOCCCNC(=O)CN(c1cc(C)cc(C)c1)S(C)(=O)=O` it was -14.2%.
On to `CC(C)n1c(=O)c2sccc2n(CC(=O)Nc2ccccc2)c1=O`, for which the cytotoxicity at 70.5 h is -11%.
Regarding `Cc1n[nH]c2c1C(c1ccc3c(c1)OCO3)SCC(=O)N2` (centres undefined), the cytotoxicity at 70.5 h came to 25.4%.
In the case of `CC(C)CN1CCn2c(nc3cc(C(=O)NC(C)C)ccc32)C1` it was -11.8%; in that of `CCOc1ccc(C2SCC(=O)Nc3c2c(=O)[nH]n3C(CC)CC)cc1` (centres undefined), -6.79%; in that of `O=C(Cc1csc(-c2ccccc2)n1)N[C@@H](C(=O)O)c1ccccc1`, -9.17%.
To `CSC1=Nc2c(cnn2-c2ccc(C)cc2)C2=NCCCN12` belongs -10.1%.
Take `CSC1=Nc2c(cnn2-c2ccccc2)C2=NCCCN12`: the cytotoxicity at 70.5 h is -8.98%.
In the case of `CC(C)C(NC(=O)Cn1nc2c(cc1=O)CCCC2)C(=O)O` (centres undefined), the cytotoxicity at 70.5 h was -13.5%.
On to `O=C(Cn1nc2c(cc1=O)CCCC2)NC(C(=O)O)c1ccccc1` (centres undefined), for which the cytotoxicity at 70.5 h was -12.2%.
Take `CC1=Nc2c(c(O)nn2C(C)C)C(c2cn(C)nc2C)S1` (centres undefined): the cytotoxicity at 70.5 h amounted to 21%.
In the case of `Cc1ccc(-c2[nH][nH]c(=O)c2CCN)cc1` it was -14.2%; in that of `Cc1ccc(-c2[nH]c3ccccc3c2C(=O)O)c(C)c1`, -4.63%; in that of `Cc1cccc(NC(=O)c2csc(NCC(C)C)n2)n1`, -14.8%.
In the case of `O=C(CSC1CCc2ccccc2NC1=O)Nc1ccc(CCO)cc1` (centres undefined), the cytotoxicity at 70.5 h was -1.18%.
In the case of `O=C(O)C1CCN(C(=O)Cn2ccc3c(Cl)cccc32)CC1` it was -12.6%; in that of `CC(=O)N1CCN(C(=O)Cn2ccc3c(Cl)cccc32)CC1`, -16.8%; in that of `CC(C)OCCCNC(=O)C1CCCN(c2ccc3nncn3n2)C1` (centres undefined), -9.82%.
In the case of `O=C(O)CSC1CCc2ccccc2NC1=O` (centres undefined) it was -14.7%; in that of `CC(C)n1[nH]c(=O)c2c1NC(=O)CC2c1cccc(O)c1` (centres undefined), -9.65%.
In the case of `O=C1CC(c2ccccc2)c2sc(C(=O)O)c(-c3ccccc3)c2N1` (centres undefined) it was -8.23%; in that of `COc1ccc(NC(=O)Cn2cc(-c3ccccc3)ncc2=O)cn1`, -6.77%.
On to `O=C(Cn1cc(-c2ccccc2)ncc1=O)Nc1nccs1`, for which the cytotoxicity at 70.5 h is 7.52%.
On to `O=C(Cn1c(=O)nc2n1C(=O)N(c1ccccc1)C2)NC1CCCCC1`, for which the cytotoxicity at 70.5 h is -7.65%.
For `CCOC(=O)N1CCN(C(=O)c2sc(-c3ccncc3)nc2C)CC1`, the cytotoxicity at 70.5 h turned out to be 23.5%.
To `CC(C)NC(=O)Cn1cc(-c2ccccc2)ncc1=O` belongs -7.17%; to `CCNS(=O)(=O)c1cnccc1N1CCN(CCO)CC1`, 4.82%.
Consider `NC(=O)CSc1nnc2n1N=CN(c1ccccc1F)C2`, for which the cytotoxicity at 70.5 h is -6.75%.
Turning to `O=c1c2cn[nH]c2nc(SCCN2CCOCC2)n1-c1ccccc1`, the cytotoxicity at 70.5 h is -7.75%.
With `O=S(=O)(Cc1ccc(Br)cc1)NCCO`, the cytotoxicity at 70.5 h was -0.457%.
In the case of `Cc1nn(S(=O)(=O)c2ccc(Cl)cc2)c(C)c1C` it was 38.4%.
To `CC(=O)c1c(C)nn(S(=O)(=O)c2ccccc2)c1C` belongs 3.79%; to `CCOC1Sc2nnc(C)n2N=C1c1ccc(Cl)cc1` (centres undefined), -8.8%; to `CCc1nn(-c2cc(Oc3ccccc3)nc(C)n2)c(N)c1C#N`, 2.22%.
In the case of `Cc1ccccc1S(=O)(=O)N(C)[C@@H]1CC[C@@H](n2ccnc2C)[C@@H]1O` it was 53.4%.
As for `Cc1noc(C)c1CC(=O)N[C@@H]1CC[C@@H](Oc2ccccc2)[C@@H]1O`, the cytotoxicity at 70.5 h was -3.35%.
In the case of `Cc1nccn1-c1nccnc1C1CCCN(C)C1` (centres undefined) it was -4.67%.
Consider `CNc1ccc(C2CN(c3cc(C)ncn3)CCO2)nc1` (centres undefined), for which the cytotoxicity at 70.5 h worked out at 1.5%.
To `Cc1ccnc(C2CCN(CCCOc3ccccc3F)C2)n1` (centres undefined) belongs -1.63%.
To `Cc1cc(-c2ccnn2C)nc(C2CCN(S(C)(=O)=O)CC2)n1` belongs -4.75%.
In the case of `Cc1ccccc1CC(=O)NCc1cnc(CC2CCN(C)CC2)cn1` it was -4.57%.
For the compound `CN([C@@H]1CC[C@@H](N2CCCC2)[C@@H]1O)S(=O)(=O)c1ccccc1`, the cytotoxicity at 70.5 h came to 24.7%.
In the case of `O=S(=O)(c1cn[nH]c1)N1CCC(O)(CN2CCOCC2)C1` (centres undefined) it was 4.95%; in that of `CCC(=O)N1CCC(c2ncc(C(=O)Nc3ccccc3)c(C)n2)C1` (centres undefined), -3.38%; in that of `O=C(c1ccncc1)N1CCCC(C2=Nc3ccccc3S(=O)(=O)N2)C1` (centres undefined), -3.07%.
To `CN1CCCC(c2cccc(-c3ccccc3F)n2)C1` (centres undefined) belongs -2.39%; to `CN(C)c1ccc(C(=O)N2CCC(c3cc4cnccc4[nH]3)CC2)cc1`, -0.667%.
In the case of `CC(=O)N1CCC1c1nc(-c2ccc(C)s2)no1` (centres undefined) it was 23.5%; in that of `Cn1ccc(C(=O)N2CCCC2c2cc(CO)[nH]n2)n1` (centres undefined), -2.72%.
In the case of `Cc1cc(NC(=O)CN2CCN(C3CCCC3)C(=O)C2)nn1C`, the cytotoxicity at 70.5 h was -4.01%.
With `Cc1noc(C)c1C(=O)N[C@@H]1CC[C@@H](Oc2ccccc2)[C@@H]1O`, the cytotoxicity at 70.5 h is -2.95%.
To `OCc1cc(C2CCCN2c2ncccn2)n[nH]1` (centres undefined) belongs 0.468%.
In the case of `Fc1ccccc1-c1cccc(C2CCCN(C3CCOCC3)C2)n1` (centres undefined) it was -7.34%; in that of `COc1ccc(C2CN(c3nc(C)cc(C)n3)CCN2C(C)=O)cc1` (centres undefined), -4.4%.
`CCc1c(C)nn2c(O)cc(C3CCN(C(=O)C4CC4)C3)nc12` (centres undefined): the cytotoxicity at 70.5 h is -6%.
As to `CCNC(=O)[C@H]1CN(Cc2ccccc2)C[C@@H]1C(=O)c1ccccc1`, the cytotoxicity at 70.5 h is -12.3%.
In the case of `O=C(c1cc(C2CC2)on1)N1C[C@H]2CC[C@](O)(c3ccccc3F)[C@H]2C1` it was -0.256%; in that of `CN(C)Cc1cccc(-c2cccnc2C(=O)NCc2ccccn2)c1`, -3.29%; in that of `CN([C@@H]1CC[C@@H](N2CCOCC2)[C@@H]1O)S(=O)(=O)c1ccccc1`, -10.3%.
In the case of `CC1(c2nccs2)CCN(C(=O)CC2CCOCC2)CC1` it was -9.57%; in that of `Nc1cc(-c2c[nH]nc2C2CCN(C(=O)C3CCCC3)C2)ccn1` (centres undefined), 5.65%; in that of `c1cnc(N2CCCC(Cc3nccs3)C2)nc1` (centres undefined), -3.8%.
To `CS(=O)(=O)N1CCCCC1c1ccc(Nc2cnccn2)nc1` (centres undefined) belongs -7.53%.
In the case of `Cc1cc(C(F)F)nn1CC(=O)NCc1nccn1C`, the cytotoxicity at 70.5 h was -3.8%.
In the case of `CNC(=O)C1CN(C(=O)Cc2ccc(OC)cc2)Cc2cn(C)nc21` (centres undefined) it was -7.07%; in that of `CCCC(=O)NCCc1cc(NC)nc(-c2ccccn2)n1`, 20.8%.
Turning to `CNC(=O)C1CCCN(C(=O)c2cncs2)C1` (centres undefined), the cytotoxicity at 70.5 h was -9.62%.
On to `CN1CCN(C(=O)CCn2ncc3ccccc32)CC(C(N)=O)C1` (centres undefined), for which the cytotoxicity at 70.5 h was -6.19%.
To `CN(C)c1nccnc1C1CCN(C(=O)C2(C)CCCCN2C)CC1` (centres undefined) belongs -5.33%; to `Cc1cncc(C2CCN(Cc3ccc(S(C)(=O)=O)cc3)CC2)n1`, -9.92%; to `O=C(CC1CC1)N1C[C@@H](O)[C@H](N2CCN(c3ccccc3)CC2)C1`, 22.4%.
To `CC(C)N1CC(c2ccnc(Nc3nccs3)n2)C1` belongs -10.4%; to `Cc1cncc(C2CCN(Cc3cnc(C)nc3)CC2)n1`, -7.22%.
To `CC(C)Cn1nc(-c2ccc(C(=O)O)cc2)cc1-c1ccc(F)cc1` belongs -5.39%; to `CC1(C)O[C@@](C)([C@H]2CC3(CCN(c4ncccn4)CC3)CO2)CC[C@@H]1O`, -4.22%; to `O=C(CCN1CCCCC1)Nc1c2c(cc3c1CCC3)CCC2`, -1.77%.
For the compound `CCN(CC)CCn1c(=O)oc2ccccc21`, the cytotoxicity at 70.5 h was -3.03%.
In the case of `CCC(CO)NCc1ccc(-c2ccc(F)cc2)o1` (centres undefined) it was -2.16%.
`CCC(CO)NCc1ccc(-c2ccccc2)o1` (centres undefined): the cytotoxicity at 70.5 h was determined as 29.3%.
In the case of `c1nn(C2CCCCC2)cc1-c1cncn1CCCN1CCCCC1` it was -0.625%; in that of `NCCc1c(-c2ccccc2)[nH][nH]c1=O`, -7.56%.
To `CN(C)CCOCc1ncn2c1CN(c1ncc(F)cn1)CCC2` belongs -3.65%; to `COc1cc(CN(C)[C@@H]2COC[C@H]2c2ccc(F)cc2)cc(OC)c1`, 0.803%.
To `Cc1nc2sccn2c1CN(CCCN(C)C)Cc1ccco1` belongs -21.2%; to `CC(N)Cc1ccccc1Sc1ccccc1` (centres undefined), -1.45%.

For the origin of these results see ChEMBL document CHEMBL3507680, “University of Dundee, Gates Library screen for HepG2 cell viability”.
